What all share (assay): growth of human tumour cells (NCI), 48 h
In experiment [1] the test system is NCI-H460 lung.
In experiment [2] the test system is SK-MEL-28 melanoma.
Experiment [3] has as its system SW-620 colon.
For experiment [4], the system named is KM12 colon.
Experiment [5] relates to A549 NSCLC.
The test system of experiment [6] is IGROV1 ovarian.
The subject of experiment [7] is HL-60(TB) leukemia.
Experiment [8] has as its system UACC-62 melanoma.
Experiment [9] concerns M14 melanoma.
Experiment [10] has as its system MDA-MB-435.

Each structure is given as a SMILES string.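 1) Cells in 96-well plates. 2) Compound, 48 h, 5 concentrations. 3) Linear interpolation between surrounding doses. 4) Unreached endpoint = highest concentration. GI50 marks 50% less growth. Definition used: TGI = concentration required for complete inhibition of growth.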

With `CCCCC1(C(NC(=O)c2ccccc2Cl)c2ccncc2)C(=O)N(c2ccccc2)N(c2ccccc2)C1=O` (stereo not drawn), the TGI in [1], in experiment [2], in experiment [3], in [4], in experiment [5] and in [6] was over 100 µM each time. Further, the figures for the TGI in [7], in experiment [8] and in [9] were 40.8 µM, over 100 µM and over 100 µM, respectively.

As for `O=NNc1ccc(S(=O)(=O)c2ccc3ccccc3c2)cn1`, the TGI in [1], in [2], in experiment [3], in experiment [4], in experiment [5] and in experiment [6] was over 100 µM throughout. Also, the TGI in experiment [7], in [8] and in experiment [9] was over 100 µM in each case.

Turning to `Clc1ccc(CN2CCCN(Cc3ccc(Cl)cc3)C2c2cc3ccccc3c3ccccc23)cc1`, the TGI in [10] was over 100 µM; in [2], 54.5 µM; in [3] it was over 100 µM; in experiment [4] it was over 100 µM; in experiment [5], over 100 µM; in experiment [6] it was over 100 µM. The figures for the TGI in [8] and in experiment [9] were 36.7 µM and 34.2 µM, respectively.

Consider `COCC(C(=O)OC1C/C=C/C=C/C(=O)OC(C(C)C(O)C(C)CCC(OC(=O)C(C)N(C)C)C(C)C(OC(C)=O)C(C)/C=C/N(C)C=O)C/C=C/C(OC)CC(C)C/C=C(\C)C(OC)CCC(C)C(O)C1C)N(C)C` (stereo not drawn), for which the GI50 in experiment [1], in experiment [2], in experiment [3], in experiment [4], in [5] and in experiment [6] was under 0.0001 µM throughout. In addition, the GI50 in [7], in experiment [8] and in experiment [9] was under 0.0001 µM each time. The TGI in experiment [1] was 0.00436 µM; in [2] it was 0.0358 µM; in experiment [3], over 1 µM; in experiment [4] it was under 0.0001 µM; in experiment [5], 0.156 µM; in [6], 0.0144 µM. Further, the TGI is under 0.0001 µM in [7], 0.000461 µM in experiment [8] and 0.00697 µM in [9].

On to `O=C1CCC(=O)N1Sc1ccccc1`, for which the TGI in experiment [1], in experiment [2], in [3], in experiment [4], in experiment [5] and in experiment [6] was over 100 µM each time. Moreover, the TGI in experiment [7], in experiment [8] and in experiment [9] was over 100 µM in each case.

Turning to `Cc1ccc2ccc(-c3ccccc3)c3c2c1C(=O)c1ccccc1C3=O`, the TGI in experiment [2], in [3], in [4], in experiment [5], in experiment [6] and in [7] was over 100 µM in each case. Also, the TGI in experiment [8] and in experiment [9] was over 100 µM in each case.

Turning to `OCC(O)C(O)C(O)c1nn(-c2ccc(F)cc2)c2nc3cc(Cl)c(Cl)cc3nc12` (stereo not drawn), the TGI is 82.1 µM in experiment [1]; 41.9 µM in experiment [2]; over 100 µM in [3]; 84.8 µM in [4]; 32 µM in [5]; 63.6 µM in experiment [6]. Also, the TGI is over 100 µM in [7], 35.9 µM in [8] and 91.8 µM in experiment [9].

In the case of `CCOC(=O)c1c(NC(=O)c2ccc(Cl)cc2)sc2c(CN(C)C)c(O)ccc12`, the GI50 in [1] is 4.71 µM; in experiment [10] it was 6.62 µM; in experiment [3], 2.4 µM; in [4], 4.82 µM; in experiment [5] it was 8.07 µM; in experiment [6] it was 8.88 µM. The values for the GI50 in experiment [8] and in [9] were 3.41 µM and 2.24 µM, respectively. In addition, the TGI was over 100 µM in experiment [1]; 29.9 µM in [10]; 7.33 µM in experiment [3]; over 100 µM in experiment [4]; 36.2 µM in experiment [5]; 31.7 µM in experiment [6]. In addition, the TGI in [8] was 14.8 µM; in [9], 5.87 µM.

As for `CN(C)c1ccc(C(O)C2=CC(=O)c3ccccc3C2=O)cc1` (stereo not drawn), the GI50 in [1] was 51.9 µM; in experiment [10], 5.94 µM; in experiment [4] it was 13.7 µM; in [5] it was 30.3 µM; in [6], 1.94 µM; in experiment [9], 15.4 µM. Further, the TGI in experiment [1] was over 100 µM; in experiment [10], 28 µM; in experiment [4], 91.4 µM; in experiment [5], over 100 µM; in experiment [6], 4.52 µM; in [9] it was 29.4 µM.

Turning to `COc1ccc(Br)c(C(=O)N2CCc3ccccc32)c1N`, the TGI in [1], in [2], in experiment [3], in [4], in [5] and in [6] was over 100 µM throughout. Also, the TGI in [7], in experiment [8] and in experiment [9] was over 100 µM in each case.

In the case of `Cc1ccc(OC(=O)N2C/C(=C\c3ccccc3)C(=O)/C(=C/c3ccccc3)C2)cc1`, the TGI is over 100 µM in experiment [1]; over 75 µM in [2]; 35.6 µM in experiment [3]; 45.7 µM in [4]; over 100 µM in [5]; over 95.5 µM in experiment [6]. The TGI amounted to 15.6 µM in experiment [7], 59 µM in [8] and 21.6 µM in experiment [9].

As for `O=c1oc2c3ccc4ccccc4c3n(CCN3CCCCC3)c2c2ccccc12`, the TGI in experiment [1] was over 43.9 µM; in experiment [2] it was over 100 µM; in experiment [3], over 100 µM; in [4] it was over 100 µM; in experiment [5], over 100 µM; in experiment [6], over 100 µM. The figures for the TGI in experiment [7], in [8] and in [9] were over 100 µM, over 78.8 µM and over 100 µM, respectively.

Take `COc1cccc(/C=N\NC(=O)C(C)SC(C)C(=O)N/N=C/c2cccc(OC)c2)c1` (stereo not drawn): the TGI in experiment [1] was 23.2 µM; in [2], over 72.8 µM; in [3], over 100 µM; in experiment [4], over 67.3 µM; in [5] it was 20.6 µM; in [6] it was 41.7 µM. Besides, the TGI in [7] was over 100 µM; in experiment [8], 97.4 µM; in experiment [9], over 100 µM.

On to `Cc1ccc(S(=O)C(C)C(Cl)c2ccccc2)cc1` (stereo not drawn), for which the TGI in [1], in experiment [2], in experiment [3], in experiment [6], in [8] and in experiment [9] was over 100 µM each time.

For the molecule `CCc1ccc2c(c1)N(CCO)C1=C(C(=O)OC1)C2c1cc(OC)c(OC)c(OC)c1` (stereo not drawn), the GI50 is 0.178 µM in [1]; 0.275 µM in experiment [2]; 0.168 µM in experiment [3]; 0.163 µM in experiment [4]; 0.236 µM in experiment [5]; 0.376 µM in [6]. In addition, the GI50 in experiment [7] was 0.142 µM; in experiment [8], 0.182 µM. Besides, the TGI in experiment [1] was 7.62 µM; in [2] it was over 50 µM; in experiment [3] it was over 50 µM; in experiment [4], 0.987 µM; in experiment [5], over 50 µM; in experiment [6] it was over 50 µM. Moreover, the TGI in experiment [7] is 0.48 µM; in experiment [8], over 50 µM.

For the molecule `C1=CC2CCC1CN2CCC1CNc2ccccc21` (stereo not drawn), the TGI in [2], in [3], in experiment [4], in experiment [5], in experiment [6] and in experiment [7] was over 100 µM throughout. Moreover, the TGI in experiment [8] and in experiment [9] was over 100 µM in each case.

As for `O=C(/C=C/c1ccccc1O)c1ccccc1Cl`, the TGI in [1], in experiment [2], in [3], in [4], in experiment [5] and in experiment [6] was over 100 µM throughout. Moreover, the TGI in [7] was 63.8 µM; in experiment [8] it was over 100 µM; in experiment [9] it was over 100 µM.

Turning to `CC1(C)OC(=O)C(=C2CCC(C(=O)Nc3cccc(C(F)(F)F)c3)N2)C(=O)O1` (stereo not drawn), the TGI in experiment [1], in [2], in [3], in experiment [4], in [5] and in experiment [6] was over 100 µM in each case. The TGI in [7], in experiment [8] and in experiment [9] was over 100 µM in each case.

For the molecule `Cc1cc(C)nc(NS(=O)(=O)c2ccc(Nc3c4ccccc4nc4c(C(=O)NCCN(C)C)cccc34)cc2)n1`, the TGI in experiment [1] was found to be 10.9 µM; in experiment [2], 20.4 µM; in [3], 15.2 µM; in experiment [4], 18.4 µM; in experiment [5], 16.1 µM; in experiment [6], 16.4 µM. Besides, the TGI in experiment [7] was 4.82 µM; in [8], 14.6 µM; in experiment [9], 20.4 µM.

Turning to `Cc1cc(Cl)ccc1NC(=O)C1C(=O)N(c2ccc(Cl)cc2C)C(=O)/C1=N\NC(N)=S` (stereo not drawn), the TGI is over 100 µM in experiment [1]; over 100 µM in [3]; over 100 µM in [4]; over 100 µM in experiment [5]; 51.8 µM in experiment [7]; 86.4 µM in [8]. Besides, the TGI in experiment [9] is over 100 µM.

In the case of `COc1cc(OC)c2c(=O)c3cccc([N+](=O)[O-])c3n(C)c2c1`, the TGI in experiment [2], in [3], in experiment [4], in [5], in experiment [6] and in [7] was over 100 µM in each case. In addition, the TGI in experiment [8] and in experiment [9] was over 100 µM each time.

For `N#CCc1cccc(CC#N)c1Br`, the TGI in experiment [1], in experiment [3], in [4], in experiment [5], in [6] and in [7] was over 100 µM each time. Further, the TGI in [8] and in [9] was over 100 µM throughout.

For `O=C(O)CSc1n[nH]c(-c2ccco2)n1`, the TGI in [1], in experiment [2], in experiment [3], in [4], in experiment [5] and in experiment [6] was over 100 µM in each case. Besides, the TGI in experiment [7], in experiment [8] and in [9] was over 100 µM in each case.

Regarding `COc1ccc(C2=Nn3c(nnc3-n3nc(C)cc3C)SC2)cc1`, the GI50 was 0.0518 µM in [1]; 0.294 µM in [2]; 0.0423 µM in experiment [3]; 0.057 µM in experiment [4]; 0.0765 µM in [5]; 0.107 µM in experiment [6]. Further, the GI50 was 0.0358 µM in [7], 0.0462 µM in experiment [8] and 0.0626 µM in [9]. For the same molecule, the TGI in experiment [1], in experiment [2], in [3], in experiment [4], in [5] and in experiment [6] was over 100 µM each time. The TGI is 0.482 µM in experiment [7], over 100 µM in [8] and over 100 µM in experiment [9].

In the case of `O=C1OC(=O)C([Se]c2ccccc2)=C1[Se]c1ccccc1`, the TGI in [1], in experiment [2], in [3], in experiment [5], in experiment [6] and in [7] was over 100 µM throughout. For the same molecule, the TGI in experiment [8] and in experiment [9] was over 100 µM throughout.

Regarding `COc1cc2c(c(OC)c1OC)C(=O)NCCC2`, the TGI in experiment [1], in [2], in experiment [3], in experiment [4], in [5] and in experiment [6] was over 100 µM in each case. The TGI in [7] is over 63.1 µM; in [8] it was over 100 µM; in [9] it was over 100 µM.

Values taken from PubChem BioAssay (NCI).
